Patent publication US20070009965A1, “Novel method for screening for GPCR agonists and/or antagonists from herbs” (Advanced Gene Technology, Corp., priority 2004, published 2007)

Target: MC5R (Homo sapiens, UniProt P33032)
Experiment: herbal chip hybridization with MC5R and Cy3-anti-MC5R, fluorescence imaging
Type: binding
Conditions: at least 25 ng/ml NDP-MSH spotted on coated slide; at least 25 μg/ml MC5R; at least 5 μg/ml Cy3-anti-MC5R; laser scanner
Description: A coated plastic slide (1) having active epoxy groups on its surface was prepared in accordance with the method disclosed in the Paragraph entitled “Pretreatment of the Plastic Slide and Preparation of the Coated Plastic Slide” under the Example section of U.S. Pat. No. 6,645,719 B2.
In a dark room, under room temperature, at least 25 μg/ml of MC3R, MC4R and MC5R were individually added to the slides (2), and the resultant slides (3) were allowed to stand for 1 hour for completing hybridization. The slides (3) were washed with 1× TBST buffer (50 mM Tris, pH 7.3, 0.15 M NaCl and 0.02% Tween 20) and Milli-Q water, and then dried in an incubator at 37° C.
Also in the dark room, under room temperature, at least 5 μg/ml of Cy3-anti-MC3R, Cy3-anti-MC4R and Cy3-anti-MC5R were respectively added to the slides (3), each containing said bound MC3R, MC4R or MC5R. The resultant slides (4) were allowed to stand for 1 hour for completing the specific MCXR-anti-MCXR binding, and were then washed with 1× TBST buffer (50 mM Tris, pH 7.3, 0.15 M NaCl and 0.02% Tween 20) and Milli-Q water, and dried in an incubator at 37° C.

Sequence of MC5R (P33032 whole entry, species assumed): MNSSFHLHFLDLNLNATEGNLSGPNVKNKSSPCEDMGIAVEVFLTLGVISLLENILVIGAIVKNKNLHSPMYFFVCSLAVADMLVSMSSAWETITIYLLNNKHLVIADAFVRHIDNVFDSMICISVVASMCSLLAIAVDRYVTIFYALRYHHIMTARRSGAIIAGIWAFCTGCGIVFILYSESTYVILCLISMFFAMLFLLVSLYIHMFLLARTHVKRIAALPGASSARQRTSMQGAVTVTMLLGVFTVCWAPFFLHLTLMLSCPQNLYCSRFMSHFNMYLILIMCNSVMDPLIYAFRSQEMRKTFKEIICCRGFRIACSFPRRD

- Mean of Fluorescence Intensity (M): 722.50
Substance: NH2-Ser-Thr-Ser-Nle-Glu-His-D-Phe-Arg-Trp-Gly-Lys-Pro-Val-OH [NDP-MSH]
